Results from patent US20240417410A1, “TRICYCLIC COMPOUNDS FOR THE TREATMENT OF CANCER” (Hoffmann-La Roche Inc., priority 2023, published 2024).

Tests used:
KRAS G12C-BRAF complex = KRAS G12C-BRAF complex (Homo sapiens (Human), UniProt P01116+P62937, G12C); test: KRAS-BRAF with CYPA (500 nM) interaction assay (TR-FRET, Example 136); assay type: biochemical; details: KRAS G12C-BRAF disruption
Method: In this example, TR-FRET was also used to measure the compound or compound-CYPA dependent disruption of the KRAS G12C-BRAF complex. This protocol was also used to measure disruption of KRAS G12D or KRAS G12V binding to BRAF by a compound of the invention, respectively. In assay buffer containing 25 mM HEPES PH=7.4 (4-(2-hydroxyethyl)-1-piperazineethanesulfonic acid, Thermo, 15630080), 0.002% Tween20, 0.1% BSA, 100 mM NaCl, 5 mM MgCl2, 10 μM GMPPNP (Guanosine 5′-[β,γ-imido]triphosphate trisodium salt hydrate, Sigma, G0635), […] 384-well assay plate at final concentrations of 50 nM, 6.25 nM and 1 nM, respectively. Compound was present in plate wells as a 16-point 3-fold dilution series starting at a final concentration of 10 μM and incubated for 3 hours. A mixture of MAb Anti-6His-XL665 (Cisbio, 61HISXLB) and Mab anti-GST-TB cryptate (Cisbio, 61GSTTLB) was then added at a final concentration of 6.67 nM and 0.21 nM, respectively, and the plate was incubated for an additional 1.5 hours. TR-FRET signal was read on a PHERstar FSX microplate reader (Ex320 nm, Em 665/615 nm). Compounds that facilitate disruption of the KRAS-BRAF complex were identified as those eliciting a decrease in the TR-FRET ratio relative to DMSO control wells.

SW620 cells (KRAS G12V) = test: Cell viability assay (Cell Counting Kit-8, 3-day); assay type: cell-based, human; details: Homo sapiens, SW-620; SW620, 72 hrs incubation
Method in brief: (§1)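 IC50 derived by 4-parameter sigmoidal fit of CCK-8 signal (OD450−OD650, 2 h development) after 72 h compound exposure in 0.5% DMSO. Seeding density was 5,000 cells/well for NCI-H358 and 2,000 cells/well for AGS and SW620, plated overnight before dosing.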

AGS cells (KRAS G12D) = test: Cell viability assay (Cell Counting Kit-8, 3-day); assay type: cell-based, human; details: Homo sapiens, 72 h, 72 hrs incubation
Method in brief: as §1

[1] = test system: NCI-H358 cells (KRAS G12C); test: Cell viability assay (Cell Counting Kit-8, 3-day); assay type: cell-based, human; details: Homo sapiens, NCI-H358, 72 h, NCI-H358, 72 hrs incubation
Method in brief: as §1

[2] = test system: phosphorylation of ERK, KRAS G12D in AGS cells; test: pERK inhibition assay; assay type: cell-based; details: Homo sapiens, AGS, 4 h
Method in brief: (§2)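 NCI-H358 (KRAS G12C), AGS (G12D) and SW620 (G12V) cells plated overnight, then treated with compound for 4 h in 0.5% DMSO. After fixing and methanol permeabilisation, phospho-ERK was detected by in-cell ELISA (HRP/TMB, OD450). IC50 from a 4-parameter sigmoidal fit.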

[3] = test system: phosphorylation of ERK, KRAS G12V in SW620; test: pERK inhibition assay; assay type: cell-based; details: Homo sapiens, SW-620, 4 h, SW620 cells
Method in brief: as §2

[4] = test system: phosphorylation of ERK, KRAS G12C in NCI-H358 cells; test: pERK inhibition assay; assay type: cell-based; details: Homo sapiens, NCI-H358, 4 h
Method in brief: as §2

Sequence of KRAS G12C-BRAF complex (P01116-2 other isoform, or with tags, fused parts or gaps G12C): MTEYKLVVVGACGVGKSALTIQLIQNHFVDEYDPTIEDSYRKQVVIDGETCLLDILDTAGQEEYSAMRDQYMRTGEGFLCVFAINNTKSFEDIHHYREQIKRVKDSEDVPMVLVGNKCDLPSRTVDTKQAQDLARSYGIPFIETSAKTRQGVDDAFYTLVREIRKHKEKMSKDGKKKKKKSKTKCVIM
Sequence of KRAS G12C-BRAF complex (P62937 whole entry): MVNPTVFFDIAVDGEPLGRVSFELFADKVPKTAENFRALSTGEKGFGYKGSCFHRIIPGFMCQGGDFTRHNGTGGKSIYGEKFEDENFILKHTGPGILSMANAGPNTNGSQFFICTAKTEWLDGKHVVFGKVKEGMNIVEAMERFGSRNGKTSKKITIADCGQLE

| Structure (SMILES) | IC50 (KRAS G12C-BRAF complex) | IC50 (SW620 cells (KRAS G12V)) | IC50 (AGS cells (KRAS G12D)) | IC50 [1] | IC50 [2] | IC50 [3] | IC50 [4] |
| --- | --- | --- | --- | --- | --- | --- | --- |
| CO[C@@H](C)c1ncc(N2CCN(CCF)CC2)cc1-c1c2c3cc(cc4c3n1CCC4)-c1csc(n1)C[C@H](NC(=O)[C@H]1[C@H](C)[C@@H]1C)C(=O)N1CCC[C@H](N1)C(=O)OCC(C)(C)C2 (atropisomer, axis not shown; (M)) [Example 110, (1r,2R,3S)-N-[(7S,13S)-(20M)-20-[5-[4-(2-fluoroethyl)piperazin-1-yl]-2-[(1S)-1-methoxyethyl]-3-pyridyl]-17,17-dimethyl-8,14-dioxo-15-oxa-4-thia-9,21,30,31-tetrazahexacyclo[23.3.1.1^2,5.1^9,13.0^19,27.0^21,26]hentriaconta-1 (28),2,5 (31), 19,25 (29),26-hexaen-7-yl]-2,3-dimethyl-cyclopropanecarboxamide] | 4.9 nM | 0.4 nM | 2.6 nM | 1.8 nM | 2.6 nM | 0.3 nM | 0.7 nM |
| CO[C@@H](C)c1ncc(N2CCOCC2)cc1-c1c2c3cc(cc4c3n1CCO4)-c1csc(n1)C[C@H](NC(=O)[C@H]1C[C@@H]1c1cccnc1)C(=O)N1CCC[C@H](N1)C(=O)OCC(C)(C)C2 (atropisomer, axis not shown; (M)) [Example 97, (1S,2S)-N-[(7S,13S)-(20M)-20-[2-[(1S)-1-methoxyethyl]-5-morpholino-3-pyridyl]-17,17-dimethyl-8,14-dioxo-15,24-dioxa-4-thia-9,21,30,31-tetrazahexacyclo[23.3.1.12.19,13 019,27 21,26,]hentriaconta-1 (28),2,5 (31), 19,25 (29),26-hexaen-7-yl]-2-(3-pyridyl)cyclopropanecarboxamide] | 14.4 nM | 0.3 nM | 2.6 nM | 1.9 nM | 1.4 nM | 0.3 nM | 0.4 nM |
| CO[C@@H](C)c1ncc(N2CCN(CCN3CCCC3=O)CC2)cc1-c1c2c3cc(cc4c3n1CCC4)-c1csc(n1)C[C@H](NC(=O)[C@H]1[C@H](C)[C@@H]1C)C(=O)N1CCC[C@H](N1)C(=O)OCC(C)(C)C2 (atropisomer, axis not shown; (M)) [Example 121, (1r,2R,3S)-N-[(7S,13S)-(20M)-20-[2-[(1S)-1-methoxyethyl]-5-[4-[2-(2-oxopyrrolidin-1-yl)ethyl]piperazin-1-yl]-3-pyridyl]-17,17-dimethyl-8,14-dioxo-15-oxa-4-thia-9,21,30,31-tetrazahexacyclo[23.3.1.1^2,5.1^9,13.0^19,27.0^21,26]hentriaconta-1 (28),2,5 (31), 19,25 (29),26-hexaen-7-yl]-2,3-dimethyl-cyclopropanecarboxamide] | 13 nM | 0.3 nM | 2.4 nM | 1.6 nM | 3.4 nM | 0.3 nM | 0.9 nM |
| COCCN1CCN(c2cnc([C@H](C)OC)c(-c3c4c5cc(cc6c5n3CCC6)-c3csc(n3)C[C@H](NC(=O)[C@H]3[C@H](C)[C@@H]3C)C(=O)N3CCC[C@H](N3)C(=O)OCC(C)(C)C4)c2)CC1 (atropisomer, axis not shown; (M)) [Example 115, (1r,2S,3R)-N-[(7S,13S)-(20M)-20-[2-[(1S)-1-methoxyethyl]-5-[4-(2-methoxyethyl)piperazin-1-yl]-3-pyridyl]-17,17-dimethyl-8,14-dioxo-15-oxa-4-thia-9,21,30,31-tetrazahexacyclo[23.3.1.1^2,5.1^9,13.0^19,27.0^21,26]hentriaconta-1 (28),2,5 (31), 19,25 (29),26-hexaen-7-yl]-2,3-dimethyl-cyclopropanecarboxamide] | 18.5 nM | 0.4 nM | 3.4 nM | 1.7 nM | 2.6 nM | 0.2 nM | 0.8 nM |
| CO[C@@H](C)c1ncc(N2CCN(C3CCOCC3)CC2)cc1-c1c2c3cc(cc4c3n1CCC4)-c1csc(n1)C[C@H](NC(=O)[C@H]1[C@H](C)[C@@H]1C)C(=O)N1CCC[C@H](N1)C(=O)OCC(C)(C)C2 (atropisomer, axis not shown; (M)) [Example 117, (1r,2R,3S)-N-[(7S,13S)-(20M)-20-[2-[(1S)-1-methoxyethyl]-5-(4-tetrahydropyran-4-ylpiperazin-1-yl)-3-pyridyl]-17,17-dimethyl-8,14-dioxo-15-oxa-4-thia-9,21,30,31-tetrazahexacyclo[23.3.1.1^2,5.1^9,13.0^19,27.0^21,26]hentriaconta-1 (28),2,5 (31), 19,25 (29),26-hexaen-7-yl]-2,3-dimethyl-cyclopropanecarboxamide] | 15.9 nM | 0.2 nM | 2.5 nM | 1.5 nM | 4.1 nM | 0.3 nM | 0.7 nM |
| CO[C@@H](C)c1ncc(N2CCN(C)CC2)cc1-c1c2c3cc(cc4c3n1CCC4)-c1csc(n1)C[C@H](NC(=O)[C@H]1C[C@H]1C)C(=O)N1CCC[C@H](N1)C(=O)OCC(C)(C)C2 (atropisomer, axis not shown; (M)) [Example 33, (1S,2R)-N-[(7S,13S)-(20M)-20-[2-[(1S)-1-methoxyethyl]-5-(4-methylpiperazin-1-yl)-3-pyridyl]-17,17-dimethyl-8,14-dioxo-15-oxa-4-thia-9,21,30,31-tetrazahexacyclo[23.3.1.1^2,5.1^9,13.0^19,27.0^21,26]hentriaconta-1 (28),2,5 (31),19,25 (29),26-hexaen-7-yl]-2-methyl-cyclopropanecarboxamide] | 19.5 nM | 7.4 nM | 100 nM | 32.3 nM | 23.1 nM | 2.7 nM | 8.5 nM |
| CO[C@@H](C)c1ncc(N2CCN(C)CC2)cc1-c1c2c3cc(cc4c3n1CCC4)-c1csc(n1)C[C@H](NC(=O)[C@H]1C[C@@H]1c1cccnc1)C(=O)N1CCC[C@H](N1)C(=O)OCC(C)(C)C2 (atropisomer, axis not shown; (M)) [Example 56, (1S,2S)-N-[(7S,13S)-(20M)-20-[2-[(1S)-1-methoxyethyl]-5-(4-methylpiperazin-1-yl)-3-pyridyl]-17,17-dimethyl-8,14-dioxo-15-oxa-4-thia-9,21,30,31-tetrazahexacyclo[23.3.1.1^2,5.1^9,13.0^19,27.0^21,26]hentriaconta-1 (28),2,5 (31), 19,25 (29),26-hexaen-7-yl]-2-(3-pyridyl)cyclopropanecarboxamide] | 10.3 nM | 0.3 nM | 5.2 nM | 1.2 nM | 2.7 nM | 0.6 nM | 0.8 nM |
| CO[C@@H](C)c1ncc(N2CCN(C)CC2)cc1-c1c2c3cc(cc4c3n1CC(F)(F)C4)-c1csc(n1)C[C@H](NC(=O)[C@H]1[C@@H]3COC[C@@H]31)C(=O)N1CCC[C@H](N1)C(=O)OCC(C)(C)C2 (atropisomer, axis not shown; (M)) [Example 60] | 15.2 nM | 1.7 nM | 32 nM | 8.2 nM | 8.2 nM | 0.9 nM | 2.3 nM |
| CO[C@@H](C)c1ncc(N2CCN(C)CC2)cc1-c1c2c3cc(cc4c3n1CCC4)-c1csc(n1)C[C@H](NC(=O)[C@H]1C[C@@H]1c1ccccc1)C(=O)N1CCC[C@H](N1)C(=O)OCC(C)(C)C2 (atropisomer, axis not shown; (M)) [Example 22, (1S,2S)-N-[(7S,13S)-(20M)-20-[2-[(1S)-1-methoxyethyl]-5-(4-methylpiperazin-1-yl)-3-pyridyl]-17,17-dimethyl-8,14-dioxo-15-oxa-4-thia-9,21,30,31-tetrazahexacyclo[23.3.1.1^2,5.1^9,13.0^19,27.0^21,26]hentriaconta-1 (28),2,5 (31), 19,25 (29),26-hexaen-7-yl]-2-phenyl-cyclopropanecarboxamide] | 6.4 nM | 0.8 nM | 14.2 nM | 3.1 nM | 3.8 nM | 0.7 nM | 0.6 nM |
